From the supplement of paper PMC10307832

Legend:
Assay in all cases: relative viability (nuclei count vs DMSO), 5 days (fraction); higher = more cells survive
[1] = compound: CC1=C(N=C(N=C1N)[C@H](CC(=O)N)NC[C@@H](C(=O)N)N)C(=O)N[C@@H]([C@H](C2=CN=CN2)OC3C(C(C(C(O3)CO)O)O)OC4C(C(C(C(O4)CO)O)OC(=O)N)O)C(=O)N[C@H](C)[C@H]([C@H](C)C(=O)N[C@@H]([C@@H](C)O)C(=O)NCCC5=NC(=CS5)C6=NC(=CS6)C(=O)NCCC[S+](C)C)O [Bleomycin] + COc1cccc2cc(-c3nc([C@H]4CC[C@H](C(=O)O)CC4)n4ncnc(N)c34)[nH]c12 [OSI-027] (partner 0.5 µM); conditions: main component drawn
How it was run: (§1)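 The day after seeding in 1536-well plates, lung cancer cell lines were treated by pin tool with a single drug, or with a fixed anchor-drug dose together with five library-drug doses (not always all listed) in √10 steps. After 5 days, a combined fix-and-stain solution (final 0.05% Triton X-100, 1% formaldehyde, 1 ug/ml Hoechst) was added. Nuclei counted on 4× images gave relative viability as treated counts over vehicle counts, reported as the median of duplicate plates.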

[2] = compound: CC1=C(N=C(N=C1N)[C@H](CC(=O)N)NC[C@@H](C(=O)N)N)C(=O)N[C@@H]([C@H](C2=CN=CN2)OC3C(C(C(C(O3)CO)O)O)OC4C(C(C(C(O4)CO)O)OC(=O)N)O)C(=O)N[C@H](C)[C@H]([C@H](C)C(=O)N[C@@H]([C@@H](C)O)C(=O)NCCC5=NC(=CS5)C6=NC(=CS6)C(=O)NCCC[S+](C)C)O [Bleomycin] + NC(=O)Nc1cc(-c2cccc(F)c2)sc1C(=O)N[C@H]1CCCNC1 [AZD7762] (partner 0.2 µM); conditions: main component drawn
How it was run: as §1

[3] = compound: CC1=C(N=C(N=C1N)[C@H](CC(=O)N)NC[C@@H](C(=O)N)N)C(=O)N[C@@H]([C@H](C2=CN=CN2)OC3C(C(C(C(O3)CO)O)O)OC4C(C(C(C(O4)CO)O)OC(=O)N)O)C(=O)N[C@H](C)[C@H]([C@H](C)C(=O)N[C@@H]([C@@H](C)O)C(=O)NCCC5=NC(=CS5)C6=NC(=CS6)C(=O)NCCC[S+](C)C)O [Bleomycin] + Cc1cc(Nc2cc(N3CCN(C)CC3)nc(Sc3ccc(NC(=O)C4CC4)cc3)n2)n[nH]1 [Tozasertib] (partner 0.1 µM); conditions: main component drawn
How it was run: as §1

[4] = compound: COc1cc([C@@H]2c3cc4c(cc3[C@@H](O[C@@H]3O[C@@H]5CO[C@@H](C)O[C@H]5[C@H](O)[C@H]3O)[C@H]3COC(=O)[C@H]23)OCO4)cc(OC)c1O [Etoposide] + Cc1nc(NC(=O)N2CCC[C@H]2C(N)=O)sc1-c1ccnc(C(C)(C)C(F)(F)F)c1 [Alpelisib] (partner 2 µM)
How it was run: as §1

| Cell Line | relative viability ([1]; first compound 0.01 µM) | relative viability ([1]; first compound 0.03162 µM) | relative viability ([1]; first compound 0.1 µM) | relative viability ([1]; first compound 0.3162 µM) | relative viability ([1]; first compound 1 µM) | relative viability ([2]; first compound 0.01 µM) | relative viability ([2]; first compound 0.03162 µM) | relative viability ([2]; first compound 0.1 µM) | relative viability ([2]; first compound 0.3162 µM) | relative viability ([2]; first compound 1 µM) | relative viability ([3]; first compound 0.01 µM) | relative viability ([3]; first compound 0.03162 µM) | relative viability ([3]; first compound 0.1 µM) | relative viability ([3]; first compound 0.3162 µM) | relative viability ([3]; first compound 1 µM) | relative viability ([4]; first compound 0.01 µM) | relative viability ([4]; first compound 0.03162 µM) | relative viability ([4]; first compound 0.1 µM) | relative viability ([4]; first compound 0.3162 µM) | relative viability ([4]; first compound 1 µM) |
| --- | --- | --- | --- | --- | --- | --- | --- | --- | --- | --- | --- | --- | --- | --- | --- | --- | --- | --- | --- | --- |
| HARA | 0.401 | 0.505 | 0.454 | 0.3 | 0.176 | 0.281 | 0.299 | 0.306 | 0.226 | 0.244 | 0.0994 | 0.118 | 0.107 | 0.1 | 0.081 | 0.649 | 0.854 | 0.792 | 0.584 | 0.167 |
| NCI-H647 | 0.195 | 0.184 | 0.184 | 0.0871 | 0.0587 | 0.166 | 0.284 | 0.112 | 0.0842 | 0.0575 | 0.0723 | 0.103 | 0.0701 | 0.0484 | 0.0467 | 1.19 | 1.22 | 1.02 | 0.429 | 0.125 |
| NCI-H2347 | 0.338 | 0.505 | 0.373 | 0.199 | 0.303 | 0.727 | 0.858 | 0.714 | 0.325 | 0.45 | 0.451 | 0.44 | 0.52 | 0.221 | 0.413 | 1.11 | 0.99 | 0.615 | 0.455 | 0.406 |
| LCLC-97TM1 | 0.444 | 0.403 | 0.177 | 0.196 | 0.108 | 0.135 | 0.141 | 0.102 | 0.0831 | 0.0741 | 0.176 | 0.217 | 0.218 | 0.158 | 0.195 |  | 0.309 | 0.132 | 0.139 | 0.107 |
| EPLC-272H | 0.258 | 0.257 | 0.21 | 0.147 | 0.149 | 0.208 | 0.192 | 0.145 | 0.114 | 0.112 | 0.232 | 0.243 | 0.191 | 0.127 | 0.173 | 0.965 | 0.934 | 0.606 | 0.931 | 0.539 |
| NCI-H1915 | 0.434 | 0.429 | 0.373 | 0.21 | 0.144 | 0.53 | 0.552 | 0.314 | 0.221 | 0.137 | 0.317 | 0.347 | 0.229 | 0.162 | 0.133 | 0.999 | 1.17 | 0.967 | 0.99 | 0.631 |
| NCI-H3122 | 0.917 | 1.03 | 0.76 | 0.262 | 0.261 | 0.972 | 0.991 | 0.966 | 0.379 | 0.33 | 0.337 | 0.281 | 0.324 | 0.177 | 0.166 | 0.748 | 0.752 | 0.728 | 0.595 | 0.402 |
| NCI-H441 | 0.404 | 0.735 | 0.534 | 0.383 | 0.283 | 1.05 | 0.977 | 1.17 | 0.689 | 0.775 | 0.53 | 0.611 | 0.471 | 0.332 | 0.275 | 0.473 | 0.722 | 0.362 | 0.16 | 0.174 |
| NCI-H2170 | 0.598 | 0.764 | 0.767 | 0.52 | 0.395 | 0.781 | 0.63 | 0.687 | 0.467 | 0.421 | 0.627 | 0.826 | 0.735 | 0.549 | 0.372 | 0.65 | 0.849 |  | 0.621 | 0.513 |
| NCI-H1395 | 0.533 | 0.647 | 0.516 | 0.367 | 0.404 | 0.371 | 0.401 | 0.352 | 0.392 | 0.324 | 0.646 | 0.695 | 0.619 | 0.407 | 0.404 | 1.02 | 1.14 | 0.773 | 0.798 | 0.69 |
| NCI-H358 | 0.73 | 0.67 | 0.662 | 0.335 | 0.185 | 0.417 | 0.579 | 0.551 | 0.426 | 0.446 | 0.103 | 0.101 | 0.0984 | 0.106 | 0.11 | 0.873 | 0.809 | 0.646 | 0.246 | 0.159 |
| PC-14 | 0.439 | 0.435 | 0.114 | 0.0634 | 0.0557 | 0.254 | 0.347 | 0.187 | 0.0884 | 0.0848 | 0.335 | 0.275 | 0.145 | 0.0771 | 0.05 | 0.927 | 1.08 | 1.1 | 0.835 | 0.808 |
| CAL-12T | 0.551 | 0.465 | 0.389 | 0.21 | 0.174 | 0.497 | 0.603 | 0.436 | 0.289 | 0.24 | 0.23 | 0.249 | 0.179 | 0.179 | 0.208 | 1.15 | 1.2 | 1.32 | 0.799 | 0.306 |
